Data set [1] deals with NCM460 cells. In words: Flow cytometric analysis of apoptosis with propidium iodide co-staining (Fig. S14, S15). To be noted: NCM460, 2 μM.
Another data set concerns HCT116 cells. Nature of the data set: Co-culture model of HCT116 and NCM460, FITC-Annexin V flow cytometry. To be noted: HCT116 in co-culture with CMF2HC-stained NCM460, 2 μM, 24 h. Type of data set: cell-based, human. How it is done:
(§1) To further verify the ability of 1 to selectively induce apoptosis of HCT116 cells over NCM460 cells, HCT116 and NCM460 cells were co-cultured and incubated with 1 for 24 h, and then stained with FITC-Annexin V and propidium iodide. In order to differentiate the two different cell lines, NCM460 cells were pre-treated with blue-emissive CMF2HC dye prior to its co-culture with HCT116 cells. […] In a parallel experiment, co-cultured cells treated with 1 for 24 h and stained with FITC-Annexin V and propidium iodide were imaged by fluorescence microscopy (Fig. 4a). Green and red fluorescence were primarily observed in cells without showing blue luminescence, i.e. HCT116 cells. […] The results of both the fluorescence microscopy and flow cytometry support the high selectivity of 1 on killing colon cancer cells in the co-culture model of cancer and normal cells.
(§2) atmosphere of 5% CO2. After reaching 80% confluency, the culture medium was
(§3) of 5% CO2 for 45 min. The solution was then removed. The stained NCM460 cells
(§4) the procedure described above.
(§5) right fore of BALB/c nude mice. When the tumor volume reached 70 mm3 after […]
(A flow cytometer gives signals particle by particle.)

Data set [2] relates to NCM460 cells. The data set is described as above. To be noted: CMF2HC-stained NCM460 in co-culture with HCT116, 2 μM, 24 h. Type of data set: cell-based, human. Here is the method: as §1, §2, §3, §4, §5
The test system of a further data set is human cancer cell lines. In words: In vitro cytotoxicity toward cancer cells compared to cisplatin (MTT). Type of data set: cell-based. The following applies: MTT 72 h. How it is done:
The in vitro cytotoxicity of 1–3 and Au1a to human cancer cell lines (HeLa, NCI-H460, HCT116, A2780) and the cisplatin- and doxorubicin-resistant cancer cell lines (A2780cis and A2780adr), as well as normal human colon mucosal epithelial cell line (NCM460), non-tumorigenic immortalized liver cells (MIHA) and normal lung fibroblast cells (CCD-19Lu), was evaluated using a 3-(4,5-dimethyl-2-thiazolyl)-2,5-diphenyltetrazolium bromide (MTT) assay (Table 1; Fig. S5a ^†). […] The low toxicity of 1 was also found in experiments with non-tumorigenic liver L02 and gliocyte CHEM-5 cells (Table S5 ^†). […]
The gold content of the nanocomposites was determined by dissolving the nanocomposites in conc. […]
The content of DOX in the nanocomposites was measured as follows. […] The solution was then diluted and filtered, and the content of DOX in the nanocomposite was determined by UPLC with photodiode array detector using daunorubicin hydrochloride (3.6 µM) as the internal standard. […]
hydrochloride standard over the peak area of daunorubicin hydrochloride (3.6 µM) in the UPLC chromatograms of the doxorubicin hydrochloride standard spiked with daunorubicin hydrochloride (3.6 µM). The encapsulation efficiency of DOX by nanostructures of 1 was calculated by the equation: […]
which reflected the amount of blue formazan formed. IC50 values were then determined by CompuSyn S6 from three independent measurements. […]

Regarding `C1=Cc2nc1c(-c1ccccc1)c1ccc([n-]1)c(-c1ccccc1)c1nc(c(-c3ccccc3)c3ccc([n-]3)c2-c2ccccc2)C=C1.[Au+3].[Cl-]` [Au1a, [Au(TPP)]Cl, reference compound], the figures for the “viability (Q3 region, corrected)” value in the data set on NCM460 cells [1] (24 h) and in the data set on NCM460 cells [1] (36 h) were 61.14% and 56.64%, respectively.
With “[Au(TPP–COO–PEG5000–OCH3)]Cl [Compound 1]”, the “cells undergoing apoptosis (FITC-Annexin V, corrected)” value with HCT116 cells was found to be 20.6%; in the data set with NCM460 cells [2], 1.87%. For the same compound, the “times more cytotoxic than cisplatin” value in the data set with human cancer cell lines is reported as 5.1–76.9 times.

The record behind these values is paper PMC5384453, “A multi-functional PEGylated gold(III) compound: potent anti-cancer properties and self-assembly into nanostructures for drug co-delivery” (Chemical Science, 2016).
